Measured values reported in patent US9103791B1, “Thallium fluorescent ion indicator and assay” (Vanderbilt University, priority 2012, dated 2015).

Tests used:
[1] = system: HEK-293 cells stably transfected with hERG potassium channels; assay: "Wash" protocol thallium flux fluorescence assay; format: cell-based; conditions: range of dofetilide concentrations, slopes of normalized fluorescence 12-22 s, compared between indicators
Procedure: The wash protocol experiment was conducted as follows. To a 384-well, black-wall, clear bottom, poly-D-lysine coated plate, add 20 μl/well of α-MEM containing 10% fetal bovine serum and 1× glutaGRO (Cell Culture Medium) and a 1000 cell/μl suspension of HEK-293 cells stably transfected with hERG potassium channels (Cell Plate). Incubate the Cell Plate overnight in a 5% CO2 cell culture incubator at 37° C. Remove the Cell Culture Medium from the Cell Plate and replace it with 20 μl/well Hanks Balanced Salt Solution+20 mM HEPES pH 7.3 (Assay Buffer). Dissolve 25 μg of thallium ion indicator (also referred to as a “dye”) in 25 μl DMSO containing 7% (w/v) Pluronic F-127. Add 12.5 μl of the dissolved thallium ion indicator to 10 ml Assay Buffer (Dye Loading Solution). Add 20 μl/well of Dye Loading Solution to the Cell Plate. Incubate the Cell Plate containing Dye Loading Solution for 1 hour at room temperature. […] Analyze data representing the amplitude of the fluorescent signal for each well at each of the 120 time points acquired during the Data Acquisition Protocol using Microsoft Excel by first dividing the fluorescence values from each individual well at each time point by the fluorescent value for that well at the first time point (Normalized Fluorescence Values). Calculate slopes of the Normalized Fluorescence Values between the 12 second and 22 second time points (Slope Values). […]

[2] = system: HEK-293 cells stably transfected with hERG potassium channels; assay: "No-wash" protocol thallium flux fluorescence assay; format: cell-based; conditions: no-wash protocol with 1.25 mM probenecid; range of dofetilide concentrations; compared to FluoZin-2, AM
Procedure: The no-wash protocol was conducted as follows. To a 384-well, black-wall, clear bottom, poly-D-lysine coated plate, add 20 μl/well of α-MEM containing 10% fetal bovine serum and 1× glutaGRO (Cell Culture Medium) and a 1000 cell/μl suspension of HEK-293 cells stably transfected with hERG potassium channels (Cell Plate). Incubate the Cell Plate overnight in a 5% CO2 cell culture incubator at 37° C. Remove the Cell Culture Medium from the Cell Plate and replace it with 20 μl/well Hanks Balanced Salt Solution+20 mM HEPES pH 7.3+1.25 mM Probenecid (sodium salt) (NW-Assay Buffer). Dissolve 25 μg thallium ion indicator (also referred to herein as a “dye”) in 25 μl DMSO containing 7% (w/v) Pluronic F-127. Add 12.5 μl of the dissolved thallium ion indicator to 10 ml Probenecid Assay Buffer (NW-Dye Loading Solution). Add 20 μl/well of Dye Loading Solution to the Cell Plate. […] Analyze data representing the amplitude of the fluorescent signal for each well at each of the 120 time points acquired during the Data Acquisition Protocol using Microsoft Excel by first dividing the fluorescence values from each individual well at each time point by the fluorescent value for that well at the first time point (Normalized Fluorescence Values). Calculate slopes of the Normalized Fluorescence Values between the 12 second and 22 second time points (Slope Values). […]

Structure (SMILES)	fluorescence results (indicator performance, FIG. 1) [1]	normalized signal amplitude (FIG. 2) [2]
COc1cc(NC(=O)c2ccc3c(c2)C(=O)OC32c3ccc(OC(C)=O)cc3Oc3cc(OC(C)=O)ccc32)ccc1N(CC(=O)OCOC(C)=O)CC(=O)OCOC(C)=O [Example 1, bis(acetoxymethyl) 2,2′-((4-(3′,6′-diacetoxy-3-oxo-3H-spiro[isobenzofuran-1,9′-xanthen]-5-ylcarboxamido)-2-methoxyphenyl)azanediyl)diacetate]	essentially indistinguishable	substantial and unexpected improvement in normalized signal amplitude over FluoZin-2, AM
COc1cc(NC(=O)c2ccc3c(c2)C(=O)OC32c3cc(F)c(OC(C)=O)cc3Oc3cc(OC(C)=O)c(F)cc32)ccc1N(CC(=O)OCOC(C)=O)CC(=O)OCOC(C)=O [FluoZin-2, AM, reference compound]	essentially indistinguishable	–
